According to PubChem BioAssay AID1863 (Southern Research Specialized Biocontainment Screening …, 2009):

Test system: S. Typhimurium PhoP-regulated promoter GFP reporter, 4 h
Assay: inhibitors of PhoP regulon expression, primary screen, Salmonella Typhimurium, GFP reporter (AID 1863)

Row | Compound | IC50 [µM]
1 | CCN1/C(=C/C(C)=C/c2sc3ccccc3[n+]2CC)Sc2ccccc21 | 17.7
2 | NC1=NC[C@H](Cc2ccc(O)cc2)N1CCCCC1CCCCC1 | 57.2
3 | Clc1ccc(CN2CCC(c3nc4ccc(Cl)cc4[nH]3)CC2)cc1 | 79.6
4 | CCCCCCCCCCCCCCCC[N+](C)(C)CCN(Cc1ccc(OC)cc1)c1ncccn1 | 30.2
5 | CCN1/C(=C/C=C/C=C/c2sc3ccccc3[n+]2CC)Sc2ccccc21 | 18.6
6 | CO[C@H]1C=CO[C@@]2(C)Oc3c(C)c(O)c4c(O)c(c(C=NN5CCN(C)CC5)c(O)c4c3C2=O)NC(=O)C(C)=CC=C[C@H](C)[C@H](O)[C@@H](C)[C@@H](O)[C@@H](C)[C@H](OC(C)=O)[C@@H]1C | 6.31
7 | NCC12CC3CC(C1)CC(c1ccc(Br)cc1)(C3)C2 | 61.6
8 | O=[N+]([O-])c1cc(/C=N/Nc2nc3ccccc3[nH]2)c(O)cc1O | 24.3
9 | Oc1cccc(/C=N/NC(=S)Nc2cccnc2)c1O | 45.6
10 | CS(=O)(=O)c1ccc([C@@H](O)[C@@H](CO)NC(=O)C(Cl)Cl)cc1 | 70.3
11 | C[C@H]1COc2c(N3CCN(C)CC3)c(F)cc3c(=O)c(C(=O)O)cn1c23 | < 0.23
12 | O=C(Nc1nc(-c2ccccn2)cs1)c1ccc(Cl)s1 | 69.3
13 | Cc1ccc(Nc2cc(C)nn2-c2nc(C)cc(=O)[nH]2)cc1 | 32.4
14 | CCCCC(CC)CN=C(N)NC(N)=NCCCCCCN=C(N)NC(N)=NCC(CC)CCCC (configuration not stated) | 7.11
15 | Cc1ccc(C(=O)O)cc1N=Cc1cc(Br)cc(Br)c1O | 93.1
16 | C#CCOCCOCCOCCNc1nc(N2CCN(C(=O)CCCCCCCCCCNC(=O)[C@H]([C@@H](C)CC)n3cc(CCCCN=C(N)N)nn3)CC2)nc(N2CCN(C(=O)CCCCCCCCCCNC(=O)[C@H]([C@@H](C)CC)n3cc(CCCCN=C(N)N)nn3)CC2)n1 | 78.7
17 | CCCOc1ccc(C(=O)NC(=S)N2CCN(c3cc4c(cc3F)c(=O)c(C(=O)O)cn4CC)CC2)cc1 | 24.3
18 | CCOC(=O)C1=Nc2ccccc2C1=[N+]=[N-] | 32.4
19 | CN(C)c1ccc(O)c2c1CC1CC3C(N(C)C)C(=O)C(C(N)=O)=C(O)[C@@]3(O)C(=O)C1=C2O (some centres not stated) | 9.35
20 | CC1CCc2cc(F)cc3c(=O)c(C(=O)O)cn1c23 (configuration not stated) | 5.94
21 | COc1nsnc1NS(=O)(=O)c1ccc(NC(=S)NC(=O)c2cccnc2)cc1 | 116
22 | COc1c(N2CCNC(C)C2)c(F)cc2c(=O)c(C(=O)O)cn(C3CC3)c12 (configuration not stated) | 0.58
23 | CN(C)S(=O)(=O)c1cccc(NC(=S)N/N=C/c2cc(Br)ccc2O)c1 | 69.3
24 | CC1CCC(C(C)C)C(OC(=O)Cn2c(-c3ccc(Cl)cc3)[n+](C)c3ccccc32)C1 (configuration not stated) | 83.7
25 | C#CCOCCOCCOCCNc1nc(N2CCN(C(=O)CCCCCCCCCCNC(=O)[C@H]([C@@H](C)CC)n3cc(CCCCN=C(N)N)nn3)CC2)nc(N2CCN(C(=O)CCCCCCCCCCNC(=O)[C@H](CCCN=C(N)N)n3cc(C[C@@H](C)CC)nn3)CC2)n1 | 75.2
26 | CO[C@@]1(NC(=O)C2SC(=C(C(N)=O)C(=O)O)S2)C(=O)N2C(C(=O)O)=C(CSc3nnnn3C)CS[C@@H]21 (some centres not stated) | 16

Row | Compound | IC50 [µM]
27 | CC[n+]1c(/C=C/C=C/c2ccc(N(C)C)cc2)sc2ccccc21 | 69.6
28 | CCCCCCCCCCOC(=O)Cn1c(COc2cccc(C)c2)[n+](C)c2ccccc21 | 18.7
29 | CCN(CC)CCOc1ccc2c(c1)C(=NNC(=O)c1ccccn1)c1cc(OCCN(CC)CC)ccc1-2 | 42.5
30 | CN1CCN(c2c(F)cc3c(=O)c(C(=O)O)cn4c3c2OCN4C)CC1 | 0.26
31 | CCn1cc(C(=O)O)c(=O)c2cc(F)c(N3CCN(C(=S)NC(=O)c4c(OC)cccc4OC)CC3)cc21 | 30
32 | CCOC(=O)N1CCN(C(c2cccnc2)c2ccc3cccnc3c2O)CC1 (configuration not stated) | 122
33 | O=C(NC(CO)Cc1ccc([N+](=O)[O-])cc1)C(Cl)Cl (configuration not stated) | 9.97
34 | Cc1cccc(Nc2cc(C)c3c(O)cccc3n2)c1C | 39.2
35 | Cc1cc(C(=O)N/N=C/c2ccc([N+](=O)[O-])s2)n[nH]1 | 42.6
36 | Cc1[nH]n(-c2ccccc2)c(=O)c1/C=N/Nc1nncc(-c2ccccc2)n1 | 29.5
37 | CCn1cc(C(=O)O)c(=O)c2cc(F)c(N3CCN(C(=S)NC(=O)c4ccccc4C)CC3)cc21 | 13.5
38 | O=C(Nc1ccccc1)Nc1ncc([N+](=O)[O-])s1 | 40.3
39 | CCCc1nnc(NC(=O)c2cn(CC)c3cc(N4CCN(C)CC4)c(F)cc3c2=O)s1 | 67.3
40 | CNc1nc(NCc2ccccc2)c2ccccc2n1 | 136
41 | CC(=O)Oc1cc2cccc(OC(C)=O)c(=O)c2c(OC(C)=O)c1OC(C)=O | 46.7
42 | C/C(=N\Nc1ncnc2sc(C)c(C)c12)c1ccccn1 | 73.9
43 | C[C@H]1c2cccc(O)c2C(O)=C2C(=O)[C@]3(O)C(O)=C(C(N)=O)C(=O)[C@@H](N(C)C)[C@@H]3[C@@H](O)[C@@H]21 | 6.25
44 | O=C1C(=O)c2ccccc2-c2ccccc21 | 11.7
45 | O=c1[nH]c2ccccc2n2c(=S)[nH]nc12 | 39.4
46 | CCc1ccc(S(=O)(=O)/N=C2/C=C(Sc3ncn[nH]3)C(=O)c3ccccc32)cc1 | 99.4
47 | c1ccc(-c2cccc(-c3ccccn3)n2)nc1 | 43.1
48 | CCCCCC(CC(=O)NO)C(=O)NC(C(=O)N1CCCC1CO)C(C)C (configuration not stated) | 12.7
49 | C=C1c2cccc(O)c2C(O)=C2C(=O)[C@]3(O)C(O)=C(C(N)=O)C(=O)[C@@H](N(C)C)[C@@H]3[C@@H](O)[C@H]12 | 1.41
50 | Oc1cccc(Nc2c3ccccc3nc3ccccc23)c1 | 147
51 | O=C(O)CCN1C(=O)CC(N2C(=O)/C(=C/c3ccc(Cl)cc3)SC2=S)C1=O (configuration not stated) | 40.4
52 | Oc1cccc2ccc(Nc3ccccn3)nc12 | 18.9

Row | Compound | IC50 [µM]
53 | NC1=NC[C@H](Cc2ccccc2)N1CCCCC1CCCCC1 | 47.7
54 | Clc1ccc(Cl)c(OCCCCNCc2ccccc2)c1 | 123
55 | CO/N=C(/C(=O)N[C@@H]1C(=O)N2C(C(=O)O)=CCS[C@H]12)c1cnc(N)s1 | 16
56 | CCn1cc(C(=O)NCC(C)C)c(=O)c2cc(F)c(N3CCN(C)CC3)cc21 | 38.2
57 | CN(C)CCCN(C(=O)CCc1ccccc1)c1nc2ccc(Cl)cc2s1 | 48.2
58 | NC(N)=N/N=C/c1ccc(OCc2ccc(Cl)cc2)cc1 | 39.4
59 | Cc1ccc(-c2c[n+](CC(=O)Nc3nc(-c4ccc(F)cc4)cs3)c3n2CCC3)cc1 | 67.8
60 | NCCc1c(-c2ccccc2)n(-c2ccccc2)c2ccccc12 | 65.9
61 | O=C(N/N=C/c1sc2ccccc2c1O)c1cccc2ccccc12 | 42.4
62 | COc1ccccc1CNCCc1ccc(F)cc1 | 42.6
63 | NC(N)=NN=C1CCCCCCCCCCC1 | 100
64 | O=C(C[n+]1cc(-c2ccc(Cl)cc2)n2c1CCC2)Nc1nc(-c2ccccc2)cs1 | 84.8
65 | N=C(N)SCc1cn(-c2ccccc2)nc1-c1ccc(Br)cc1 | 30.5
66 | CC(C(=O)NC1C=CS(=O)(=O)C1)N1C(=O)/C(=C/c2ccc(Cl)cc2)SC1=S (configuration not stated) | 72.2
67 | CCCCCCCCCC[N+](C)(C)CC/C=C1/c2ccccc2Sc2ccc(Cl)cc21 | 18.5
68 | O=C(N/N=C/c1cc2c3c(c1O)CCCN3CCC2)c1ccccc1O | 138
69 | CCn1nc(C(=O)O)c(=O)c2cc3c(cc21)OCO3 | 27.9
70 | Oc1cccc(Nc2nc(NCC3CCCO3)c3ccccc3n2)c1 (configuration not stated) | 140
71 | CCCCCCCCCCCCCCCCn1cc[n+](CC(C)=O)c1 | 31.8
72 | CCCCCc1ccc(OCCOCCn2c[n+](C)c3ccccc32)c(CCCCC)c1 | 43.6
73 | O=[N+]([O-])c1cc(CN2CCOCC2)c2cccnc2c1O | 44.2
74 | O=[N+]([O-])c1cc(Cl)c2cccnc2c1O | 3.07
75 | CCCCCCCCCCCCCCCC[n+]1cccc(C(=O)N(CC)CC)c1 | 25.3
76 | COc1c(N2CCN(C(=S)Nc3ccc(F)cc3)C(C)C2)c(F)cc2c(=O)c(C(=O)O)cn(C3CC3)c12 (configuration not stated) | 7.48
77 | O=C(CSc1nc2ccccc2s1)N/N=C/c1cc([N+](=O)[O-])ccc1O | 109
78 | COc1cc(C)c(Cc2cnc(N)nc2N)cc1OC | 11.7

Row | Compound | IC50 [µM]
79 | O=C(C[n+]1cc(-c2ccc(Cl)c(Cl)c2)n2c1CCC2)N1c2ccccc2Sc2ccccc21 | 72.7
80 | CC(=O)NC(c1ccc(C)cc1)c1cc([N+](=O)[O-])c2cccnc2c1O (configuration not stated) | 36.8
81 | CNC[C@H](CC1CCCCC1)NC[C@H](Cc1ccccc1)NCCC12CC3CC(CC(C3)C1)C2 | 18.1
82 | CCn1cc(C(=O)O)c(=O)c2cc(F)c(N3CCN(C)CC3)cc21 | 1
83 | N=c1n(Cc2ccccc2)c2ccccc2n1CC(O)COc1ccc(Cl)cc1Cl (configuration not stated) | 35.1
84 | CCN(CC)c1ccc(/C=N/Nc2nc3ccccc3[nH]2)c(O)c1 | 134
85 | COC(=O)c1c(NC(=O)c2ccc([N+](=O)[O-])o2)sc2c1CCN(C(C)C)C2 | 56.3
86 | COc1ccc(OCc2n(CC(=O)OC3CC(C)CCC3C(C)C)c3ccccc3[n+]2C)cc1 (configuration not stated) | 74.9
87 | NC1=NC[C@@H](Cc2ccc(O)cc2)N1CCCCC1CCCCC1 | 31.2
88 | Nc1cccc2nc3ccccc3cc12 | 58.2
89 | CCCCCNCC(=O)Nc1cccc(C(=O)Nc2cccc(C(F)(F)F)c2)c1 | 94.4
90 | Oc1ccc(CN2CCN(Cc3ccccc3)CC2)c2cccnc12 | 61.5
91 | Cc1ccc(Nc2nc(N)c3ccccc3n2)cc1Cl | 67.6
92 | O=C(N/N=C/c1ccc([N+](=O)[O-])o1)c1ccc(O)cc1 | 33.3
93 | CCC(C)N1CCC2(CC1)N=c1c(c3c4c5c(C)c(O)c3c(O)c1=NC(=O)C(C)=CC=C[C@H](C)[C@H](O)[C@@H](C)[C@@H](O)[C@@H](C)[C@H](OC(C)=O)[C@H](C)[C@@H](OC)C=CO[C@@](C)(O5)C4=O)N2 (some centres not stated) | 2.72
94 | COc1ccc(Nc2cc(C)c3c(O)cccc3n2)cc1 | 68.6
95 | CC[n+]1c(/C=C/N(C)c2ccccc2)n(-c2ccccc2)c2ccc(-c3nc4ccccc4s3)cc21 | 26.5
96 | Cc1ccnc(NC(c2cccnc2)c2ccc3cccnc3c2O)c1 (configuration not stated) | 57.1
97 | CCCCCN=C(N)N/N=C/c1c[nH]c2ccc(OC)cc12 | 51.2
98 | O=C(N/N=C/c1cc([N+](=O)[O-])ccc1O)C1CC1 | 66.5
99 | O=C(N/N=C\C=C\c1ccc([N+](=O)[O-])o1)c1cccs1 | 23.5
100 | Clc1cc(Br)ccc1OCCCNCc1ccccc1 | 82.8
101 | C#CCOCCOCCOCCNc1nc(N2CCN(C(=O)CCCCCCCCCCNC(=O)[C@H](CCCCN)n3cc(C[C@@H](C)CC)nn3)CC2)nc(N2CCN(C(=O)CCCCCCCCCCNC(=O)[C@H](CCCN=C(N)N)n3cc(C[C@@H](C)CC)nn3)CC2)n1 | 80.9
102 | CN(O)/C=c1/ccc2c(n1)C(=O)C=CC=2 | 113
